B1: BDNF: brain-derived neurotrophic factor, TRKB ligand (protein, UniProt P23560 19-247, looked up)
Neurotrophic factor BDNF …: APMKEANIRGQGGLAYPGVRTHGTLESVNGPKAGSRGLTSLADTFEHVIEELLDEDQKVRPNEENNKDADLYTSRVMLSSQVPLEPPLLFLLEEYKNYLDAANMSMRVRRHSDPARRGELSVCDSISEWVTAADKKTAVDMSGGTVTVLEKVPVSKGQLKQYFYETKCNPMGYTKEGCRGIDKRHWNSQCRTTQSYVRALTMDSKKRIGWRFIRIDTSCVCTLTIKRGR

How the values were obtained:
GFP-TRKB [1] = test: FRAP of GFP-TRKB in dendritic spines of hippocampal neurons; assay type: cell-based, rat; conditions: BDNF 20 ng/mL, FLX 1 μM, KET 10 μM; 15 min pretreatment
GFP-TRKB.Y433F [2] = test: FRAP of GFP-TRKB.Y433F in dendritic spines of hippocampal neurons; assay type: cell-based, rat; conditions: BDNF 20 ng/mL, FLX 1 μM, KET 10 μM; 15 min
Procedure: For the fluorescence recovery after photobleaching (FRAP) experiments, E18 rat embryo hippocampal cells were plated onto glass coverslips coated with poly-L-lysine (Sigma-Aldrich) in 4-well cell culture plates at a density of 200.000 cells/well. The cultures were incubated at +37°C in serum-free Neurobasal medium (supplemented with 2% B27, 1% L-glutamine and 1% ampicillin) for approximately 2 weeks (DIV 14-16), renewing half of the growth media weekly. Then, they were transfected with Lipofectamine 2000 (Invitrogen) in order to overexpress GFP-tagged TRKB constructs (TRKB.WT or TRKB.Y433F). The cultures were incubated with the transfection mix (per well: 50ul neurobasal medium, 1ul Lipofectamine 2000, 1ug plasmid DNA) in serum-free media for 1.5 hours, followed by 3x medium washes and returned to the original growth medium after that. The cells were left at +37°C o/n to overexpress the constructs ([Koskinen et al., 2012]). Next day, FRAP was performed with a confocal microscope (Zeiss LSM 710, Carl Zeiss AG) adapted for live cell imaging with a chamber set at +37°C and 5%CO2 (Zeiss Temp Module system, Carl Zeiss AG). Coverslips with the cultured hippocampal neurons were carefully transferred to 35mm Petri dishes with warm HBSS medium without phenol red or serum to avoid sources of background fluorescence. After a 10 minutes adaptation period in the microscope chamber to avoid focus drift caused by temperature fluctuations of the stage and objective, dendritic shafts or spines (spine head diameter = ∼1um) were localized with a 63x/0.90 NA dipping water objective. Picture format was 512x512 pixels. The nominal speed to capture images was set to 9 (pixel dwell 3.15 μseconds, taking approximately 0.5 s to finish a scan), and the pinhole aperture was set to completely open to obtain a strong fluorescent signal ([Koskinen et al., 2012]; [Zheng et al., 2011]). Once a region of interest (ROI) was selected with a circle that contained the whole spine, it was bleached to establish the FRAP baseline. […]

GFP-TRKB.Y433F [3] = test: dSTORM/TIRF of GFP-TRKB.Y433F clusters on MG87.TRKB cells; assay type: cell-based, mouse; conditions: BDNF 10 ng/ml, FLX 10 μM, CHOL 20 μM, KET 10 μM; 15 min
Procedure: (§1) For direct stochastic optical reconstruction microscopy (dSTORM) MG87.TRKB cells were grown on cell view 35mm dishes with glass bottom (Greiner) coated with poly-L-lysine (Sigma). […] Briefly, cells were fixed 24 hours post transfection with 4% PFA for 20 minutes, washed three times for 5 min with 1x PBS and incubated in blocking buffer (1% BSA, 0.1% gelatin, 5% goat serum, 0.1% Triton X-100 and 0.05% Tween-20 in PBS; all from Sigma) for 1 hour. The primary antibody against GFP (Abcam, #ab290) was diluted 1:100 and incubated overnight at +4°C, while the secondary antibody Alexa Fluor-conjugated goat-anti-rabbit 647 (Invitrogen) was diluted 1:500 and incubated at room temperature for 1 hour. The dishes were stored in +4°C in 1x PBS no longer than 48 hours before imaging.
(§2) During imaging, cells were maintained in blinking buffer (10% glucose, 0.07% cysteamine, 0.75 mg/ml glucose oxidase and 0.04 mg/ml catalase in 0.1 M Tris buffer, pH 7.8-8; all reagents from Sigma-Aldrich), which was freshly prepared and changed every hour. Imaging was performed in TIRF mode (TIRF angle 89.3 calibrated with ring-TIRF at least twice per sample) to specifically image the fluorophores at the plasma membrane. A GE DeltaVision OMX SR system (GE Healthcare) equipped with an Apo N 60x/1.49 oil objective and a sCMOS camera was used to acquire the images. The 640 nm diode laser was used at 100% of power to excite the Alexa 647 fluorophores while the 405 nm laser was adjusted until approximately 50% of power in order to maintain the blinking throughout the imaging session. For each cell, 35000 frames were acquired, and the localization map of single fluorophores was reconstructed with SoftWoRx 7.0 software (GE Healthcare). For the localization map, the first 1000 frames approximately were discarded and the reconstruction parameters were maintained identical for all the samples.
(§3) Reconstruction parameters: For the localization of all the blinking events in the dataset, the point spread function size factor was set at 1.550 with a local maximum factor of 0.05. Drift correction was adjusted dividing the frames into 20 groups. Tracking of the fluorophores was performed with a maximum localization precision of 100 nm without fiducial markers. The final localization map of the fluorophores identified was built with a reconstruction pixel size of 10 nm and localization precision set at 5 and 100 nm respectively for the minimum and the maximum, and a fluorophore persistence threshold set at 3 frames.
(§4) The analysis of the reconstructed images was performed in Fiji. Depending on the size of picture, 5 or 10 representative regions of interest (ROIs) of 2x1 μm were blindly chosen per cell and used for particle analysis of the TRKB-positive clusters. […]

GFP-TRKB [4] = test: dSTORM/TIRF of GFP-TRKB clusters on MG87.TRKB cells; assay type: cell-based, mouse; conditions: BDNF 10 ng/ml, FLX 10 μM, CHOL 20 μM, KET 10 μM; 15 min
Procedure: as §1, §2, §3, §4

| Molecule | recovery of GFP-TRKB fluorescence in dendritic spines after bleaching (GFP-TRKB [1]) | fluorescence of GFP-TRKB.Y433F in dendritic spines after bleaching (GFP-TRKB.Y433F [2]) | size of clusters of GFP-TRKB.Y433F at the plasma membrane (GFP-TRKB.Y433F [3]) | size of clusters formed by wild-type GFP-TRKB at the plasma membrane (GFP-TRKB [4]) |
| --- | --- | --- | --- | --- |
| CNC1(c2ccccc2Cl)CCCCC1=O (centres unmarked) [KET, ketamine] | promoted recovery of GFP-TRKB fluorescence in dendritic spines | Neither BDNF, FLX, nor KET increased the fluorescence | not clusters of GFP-TRKB.Y433F mutants | increased the size of clusters |
| CC(C)CCC[C@@H](C)[C@H]1CC[C@H]2[C@@H]3CC=C4C[C@@H](O)CC[C@]4(C)[C@H]3CC[C@]12C [CHOL, cholesterol] | – | – | not clusters of GFP-TRKB.Y433F mutants | increased the size of clusters |
| CNCCC(Oc1ccc(C(F)(F)F)cc1)c1ccccc1 (centres unmarked) [FLX, fluoxetine] | promoted recovery of GFP-TRKB fluorescence in dendritic spines | Neither BDNF, FLX, nor KET increased the fluorescence | not clusters of GFP-TRKB.Y433F mutants | increased the size of clusters |
| B1 | rapid recovery of GFP-TRKB fluorescence in spines | Neither BDNF, FLX, nor KET increased the fluorescence | not clusters of GFP-TRKB.Y433F mutants | increased the size of clusters |

— PMC7938888, “Antidepressant drugs act by directly binding to TRKB neurotrophin receptors” (Cell, 2021)
